{"source": "paper PMC9011347", "about": "“Small-Molecule Inhibitors Targeting Lipolysis in Human Adipocytes” (Journal of the American Chemical Society, 2022)", "tested_on": "lipoprotein lipase (LPL) and hepatic lipase (HL)", "experiment": "Heparin-releasable TAG hydrolase activity in post-heparin plasma", "assay_type": "biochemical", "settings": "NG-497 100 µM, radiolabeled triolein", "method": "Fig. S3: Investigation of off-target effects of NG-497 on structurally and functionally related lipid hydrolases. (a) PNPLA1-dependent formation of acylceramides was monitored in a cell-based assay in HEK293T cells. Experiments were performed in the presence or absence of NG-497 (40 µM) and the non-selective lipase inhibitor Orlistat (40 µM). Orlistat, but not NG-497, inhibited PNPLA1/CGI-58-dependent ω-O-acylceramide formation. (b-h) Enzymes were overexpressed in Expi293 cells and cell lysates were used as source of enzymatic activity. […] Experiments were performed in the presence or absence of NG-497 (100 µM) and the formation of reaction products was monitored. […]\nData were calculated relative to the basal activity detected in LacZ-transfected controls. […]\nLPL activity was inhibited using an anti-LPL antibody. All data are presented as mean ± S.D. Statistical significance was determined via ANOVA followed by Bonferroni post hoc test ( ***, p < 0.001). […]\nReleased free fatty acids were quantified via NEFA C kit (Fujifilm Wako Chemicals, Neuss, Germany) and release of p-nitrophenol was measured at 405 nm. […] Cellular ω-O-acylceramide formation was monitored using [1-14C]linoleic acid as tracer. […] The activity of purified human pancreatic lipase (MilliporeSigma #SRE0028) was determined as previously described7 in the presence or absence of NG-497 (100µM) or Orlistat (20 µM). […]", "data": [{"smiles": "CCOc1ccc(-c2cc(OC)cc(C(=O)OC(C)C)n2)cc1", "note": "[NG-497]", "values": [{"measurement": "inhibition of heparin-releasable TAG hydrolase activity in human serum", "result": "did not observe inhibition"}]}]}
